This passage reports IC50 results from patent publication US20170022171A1, “2,5-DISUBSTITUTED CYCLOPENTANECARBOXYLIC ACIDS AND THEIR USE” (Bayer Pharma Aktiengesellschaft, priority 2014, published 2017).

What all share (assay type): biochemical
One experiment has as its target T1, MMP-10 (Homo sapiens, UniProt P09238).
T1 construct: purchased R&D Systems 910-MP
Briefly: In vitro MMP-10 inhibition test. The text has this: (§1) The MMP-mediated amidolytic cleavage of a suitable peptide substrate leads to an increase in fluorescent light here too. The signal intensity of the fluorescent light is directly proportional to the enzyme activity. The active concentration of a test compound at which half the enzyme is inhibited (50% signal intensity of the fluorescent light) is reported as the IC50 value.
Recombinant MMP-10 (from R&D Systems, 910-MP) is chemically activated in accordance with the manufacturer's instructions using APMA. 1 μl of the test compound to be analysed (as a solution in DMSO, suitable concentrations, for example, 1 nM to 30 μM) is pipetted into 24 μl of activated enzyme (final concentration, for example, 2 nM) in reaction buffer (50 mM Tris/HCl pH 7.5, 10 mM CaCl2, 150 mM NaCl, 0.05% Brij®-35) in a white 384-hole microtiter plate (MTP). The enzymatic reaction is started by adding the intramolecularly quenched Mca-Arg-Pro-Lys-Pro-Val-Glu-Nval-Trp-Arg-Lys(Dnp)-NH2 substrate (final concentration, for example, 10 μM; R&D Systems, ES-002), so as to result in a total test volume of 50 μl. The course of the MMP-10 reaction is measured by measuring the fluorescence intensity (excitation 320 nm, emission 410 nm) over a suitable period of time (for example over 120 min at a temperature of 32° C.).

The target in a further experiment is T2, MMP-7 (Homo sapiens, UniProt P09237).
T2 construct: purchased R&D Systems 907-MP
T2 sequence (P09237 95-267): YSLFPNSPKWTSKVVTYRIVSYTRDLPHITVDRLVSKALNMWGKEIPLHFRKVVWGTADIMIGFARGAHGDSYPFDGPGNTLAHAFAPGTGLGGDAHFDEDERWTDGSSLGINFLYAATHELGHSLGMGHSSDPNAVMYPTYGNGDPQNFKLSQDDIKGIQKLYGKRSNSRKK
The experiment can be described thus: In vitro MMP-7 inhibition test.
Text: as §1
Recombinant MMP-7 (from R&D Systems, 907-MP) is chemically activated in accordance with the manufacturer's instructions using APMA. 1 μl of the test compound to be analysed (as a solution in DMSO, suitable concentrations, for example, 1 nM to 30 μM) is pipetted into 24 μl of activated enzyme (final concentration, for example, 0.5 nM) in reaction buffer (50 mM Tris/HCl pH 7.5, 10 mM CaCl2, 150 mM NaCl, 0.05% Brij®-35) in a white 384-hole microtiter plate (MTP). The enzymatic reaction is started by adding the intramolecularly quenched Mca-Pro-Leu-Gly-Leu-Dpa(Dnp)-Ala-Arg-NH2 substrate (final concentration, for example, 10 μM; R&D Systems, ES-001), so as to result in a total test volume of […] The course of the MMP-7 reaction is measured by measuring the fluorescence intensity (excitation 320 nm, emission 410 nm) over a suitable period of time (for example over 120 min at a temperature of 32° C.).

In a further experiment the target is T3, MMP-2 (Homo sapiens, UniProt P08253).
T3 construct: purchased R&D Systems 902-MP
T3 sequence (P08253 110-660): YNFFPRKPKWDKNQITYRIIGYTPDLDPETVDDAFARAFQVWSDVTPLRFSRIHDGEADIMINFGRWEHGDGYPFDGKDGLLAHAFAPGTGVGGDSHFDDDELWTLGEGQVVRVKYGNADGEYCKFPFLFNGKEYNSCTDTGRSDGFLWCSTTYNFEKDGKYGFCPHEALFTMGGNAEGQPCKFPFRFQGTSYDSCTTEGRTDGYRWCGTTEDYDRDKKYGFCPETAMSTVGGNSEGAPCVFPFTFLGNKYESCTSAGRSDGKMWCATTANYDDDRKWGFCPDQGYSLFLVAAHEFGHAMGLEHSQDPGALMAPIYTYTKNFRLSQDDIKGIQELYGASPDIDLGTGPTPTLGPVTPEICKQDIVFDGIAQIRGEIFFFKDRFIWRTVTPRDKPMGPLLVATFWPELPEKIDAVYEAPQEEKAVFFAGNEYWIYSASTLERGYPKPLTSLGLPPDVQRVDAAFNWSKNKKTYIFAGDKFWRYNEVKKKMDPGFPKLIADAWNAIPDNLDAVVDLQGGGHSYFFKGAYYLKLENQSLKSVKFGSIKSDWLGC
Briefly: In vitro MMP-2 inhibition test.
Text: as §1
(§2) Recombinant MMP-2 (from R&D Systems, 902-MP) is chemically activated in accordance with the manufacturer's instructions using APMA. 1 μl of the test compound to be analysed (as a solution in DMSO, suitable concentrations, for example, 1 nM to 30 μM) is pipetted into 24 μl of activated enzyme (final concentration, for example, 2 nM) in reaction buffer (50 mM Tris/HCl pH 7.5, 10 mM CaCl2, 150 mM NaCl, 0.05% Brij®-35) in a white 384-hole microtiter plate (MTP). The enzymatic reaction is started by adding the intramolecularly quenched Mca-Pro-Leu-Gly-Leu-Dpa(Dnp)-Ala-Arg-NH2 substrate (final concentration, for example, 10 μM; R&D Systems, ES-001), so as to result in a total test volume of 50 μl. The course of the MMP-2 reaction is measured by measuring the fluorescence intensity (excitation 320 nm, emission 410 nm) over a suitable period of time (for example over 120 min at a temperature of 32° C.).

Another experiment addresses T4, MMP-9 (Homo sapiens, UniProt P14780).
T4 construct: purchased R&D Systems 911-MP
The experiment can be described thus: In vitro MMP-9 inhibition test.
Text: as §1
as §2, with “Recombinant MMP-9” for “Recombinant MMP-2”, “Systems, 911-MP)” for “Systems, 902-MP)”, “example, 0.1” for “example, 2”, “the MMP-9” for “the MMP-2”

T4 sequence (P14780 107-707 limits assumed): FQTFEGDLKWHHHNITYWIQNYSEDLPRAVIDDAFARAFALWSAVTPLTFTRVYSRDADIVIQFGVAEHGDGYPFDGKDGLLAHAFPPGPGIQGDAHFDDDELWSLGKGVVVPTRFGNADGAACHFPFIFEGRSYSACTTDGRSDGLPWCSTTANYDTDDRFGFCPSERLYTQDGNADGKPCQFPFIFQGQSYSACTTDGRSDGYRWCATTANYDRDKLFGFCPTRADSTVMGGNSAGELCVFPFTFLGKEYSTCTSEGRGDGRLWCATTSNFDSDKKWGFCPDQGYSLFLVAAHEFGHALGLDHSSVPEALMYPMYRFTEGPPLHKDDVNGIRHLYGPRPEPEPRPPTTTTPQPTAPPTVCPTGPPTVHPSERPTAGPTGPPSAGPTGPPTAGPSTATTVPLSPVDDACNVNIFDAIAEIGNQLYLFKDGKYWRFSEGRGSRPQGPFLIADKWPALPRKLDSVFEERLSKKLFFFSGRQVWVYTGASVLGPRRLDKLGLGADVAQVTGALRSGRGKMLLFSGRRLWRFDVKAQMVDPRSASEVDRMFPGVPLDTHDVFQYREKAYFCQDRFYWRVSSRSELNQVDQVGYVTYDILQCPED
T1 sequence (P09238 99-476): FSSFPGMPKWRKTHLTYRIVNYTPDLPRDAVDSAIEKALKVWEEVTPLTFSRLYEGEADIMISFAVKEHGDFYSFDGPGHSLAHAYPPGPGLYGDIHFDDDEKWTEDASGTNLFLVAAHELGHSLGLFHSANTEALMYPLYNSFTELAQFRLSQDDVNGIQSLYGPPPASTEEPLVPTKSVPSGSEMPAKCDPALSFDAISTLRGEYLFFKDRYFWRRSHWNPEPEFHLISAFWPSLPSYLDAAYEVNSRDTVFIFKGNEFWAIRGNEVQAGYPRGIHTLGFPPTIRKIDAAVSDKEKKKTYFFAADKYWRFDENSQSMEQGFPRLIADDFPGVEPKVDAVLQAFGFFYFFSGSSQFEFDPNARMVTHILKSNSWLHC

The IC50 is the concentration at which inhibition is half-maximal. On to `O=C(O)[C@H]1[C@H](Cn2nnc3ccc(C(F)(F)F)cc3c2=O)CC[C@@H]1C(=O)c1ccc(OCc2ccccc2)cc1` (racemic) [Example 11, (+/−)-(1RS,2RS,5SR)-2-[4-(Benzyloxy)benzoyl]-5-{[4-oxo-6-(trifluoromethyl)-1,2,3-benzotriazin-3(4H)-yl]methyl}cyclopentanecarboxylic acid], for which the IC50 against MMP-10 came to 16 nM; against MMP-7, 87 nM; against MMP-2 it was 210 nM; on MMP-9, 18 nM.
For `Cc1ccc2nnn(C[C@H]3CC[C@@H](C(=O)c4ccc(OCc5cccc(Cl)c5)cc4)[C@@H]3C(=O)O)c(=O)c2c1` (single isomer, unassigned) [Example 104, (+)-(1RS,2RS,5SR)-2-{4-[(3-Chlorobenzyl)oxy]benzoyl}-5-[(6-methyl-4-oxo-1,2,3-benzotriazin-3(4H)-yl)methyl]cyclopentanecarboxylic acid], in that order: 50 nM, 270 nM, 220 nM and 110 nM.
For “(+)-(1RS,2RS,5SR)-2-{4-[(3,4-Dichlorobenzyl)oxy]benzoyl}-5-{[4-oxo-6-(trifluoromethyl)-1,2,3-benzotriazin-3(4H)-yl]methyl}cyclopentanecarboxylic acid [Example 28]”, in that order: 130 nM, 300 nM, 700 nM and 260 nM.
As for `COc1cccc(COc2ccc(C(=O)[C@@H]3CC[C@H](Cn4nnc5ccc(C)cc5c4=O)[C@H]3C(=O)O)cc2)c1` (single isomer, unassigned) [Example 107, (+)-(1RS,2RS,5SR)-2-{4-[(3-Methoxybenzyl)oxy]benzoyl}-5-[(6-methyl-4-oxo-1,2,3-benzotriazin-3(4H)-yl)methyl]cyclopentanecarboxylic acid], the IC50 turned out to be 52 nM on MMP-10, 200 nM against MMP-7, 300 nM against MMP-2 and 89 nM at MMP-9.
For `O=C(O)[C@H]1[C@H](Cn2nnc3ccccc3c2=O)CC[C@@H]1C(=O)c1ccc(OCc2ccc(Cl)c(Cl)c2)cc1` (racemic) [Example 3, (+/−)-(1RS,2RS,5SR)-2-{4-[(3,4-Dichlorobenzyl)oxy]benzoyl}-5-[(4-oxo-1,2,3-benzotriazin-3(4H)-yl)methyl]cyclopentanecarboxylic acid], in that order: 430 nM, 4900 nM, 190 nM and 900 nM.
`Cc1cccc(COc2ccc(C(=O)[C@H]3CC[C@@H](Cn4nnc5ccc(C(F)(F)F)cc5c4=O)[C@@H]3C(=O)O)cc2)c1` (racemic) [Example 15, (+/−)-(1RS,2RS,5SR)-2-{4-[(3-Methylbenzyl)oxy]benzoyl}-5-{[4-oxo-6-(trifluoromethyl)-1,2,3-benzotriazin-3(4H)-yl]methyl}cyclopentanecarboxylic acid]: the concentration for half-maximal inhibition (IC50) was found to be 26 nM at MMP-10, 120 nM at MMP-7, 480 nM against MMP-2 and 230 nM against MMP-9.
For `O=C(O)[C@@H]1[C@@H](Cn2nnc3ccc(C(F)(F)F)cc3c2=O)CC[C@H]1C(=O)c1ccc(OCc2ccc(Cl)cc2)cc1` (single isomer, unassigned) [Example 25, (+)-(1RS,2RS,5SR)-2-{4-[(4-Chlorobenzyl)oxy]benzoyl}-5-{[4-oxo-6-(trifluoromethyl)-1,2,3-benzotriazin-3(4H)-yl]methyl}cyclopentanecarboxylic acid], in that order: 19 nM, 120 nM, 79 nM and 3 nM.
For `O=C(O)[C@H]1[C@H](Cn2nnc3ccc(C(F)(F)F)cc3c2=O)CC[C@@H]1C(=O)c1ccc(OCCCC2CCCCC2)cc1` (racemic) [Example 56, (+/−)-(1RS,2RS,5SR)-2-{4-(3-Cyclohexylpropoxy)benzoyl}-5-{[4-oxo-6-(trifluoromethyl)-1,2,3-benzotriazin-3(4H)-yl]methyl}cyclopentanecarboxylic acid], in that order: 250 nM, 1400 nM, 2800 nM and 4900 nM.
For `O=C(O)[C@H]1[C@H](Cn2nnc3ccccc3c2=O)CC[C@@H]1C(=O)c1ccc(OCC2CCCC2)cc1` (racemic) [Example 4, (+/−)-(1RS,2RS,5SR)-2-[4-(Cyclopentylmethoxy)benzoyl]-5-[(4-oxo-1,2,3-benzotriazin-3(4H)-yl)methyl]cyclopentanecarboxylic acid], in that order: 110 nM, 2200 nM, 84 nM and 130 nM.
For `O=C(O)[C@H]1[C@H](Cn2nnc3ccc(C(F)(F)F)cc3c2=O)CC[C@@H]1C(=O)c1ccc(SCc2ccc(Cl)c(Cl)c2)cc1` (racemic) [Example 79, (+/−)-(1RS,2RS,5SR)-2-{4-[(3,4-Dichlorobenzyl)sulphanyl]benzoyl}-5-{[4-oxo-6-(trifluoromethyl)-1,2,3-benzotriazin-3(4H)-yl]methyl}cyclopentanecarboxylic acid], the IC50 against MMP-10 was 310 nM; against MMP-7 it was 1300 nM; against MMP-2, 4000 nM; on MMP-9, 3200 nM.
Regarding `CCCCCSc1ccc(C(=O)[C@H]2CC[C@@H](Cn3nnc4ccc(C(F)(F)F)cc4c3=O)[C@@H]2C(=O)O)cc1` (racemic) [Example 88, (+/−)-(1RS,2SR,5RS)-2-{[4-Oxo-6-(trifluoromethyl)-1,2,3-benzotriazin-3(4H)-yl]methyl}-5-[4-(pentylsulphanyl)benzoyl]cyclopentanecarboxylic acid], the IC50 against MMP-10 stood at 22 nM; against MMP-7 it was 120 nM; against MMP-2 it was 190 nM; against MMP-9, 55 nM.
